Measured values: patent US9333240B2, “Compounds for improving nutritional status, cognition and survival” (YISSUM RESEARCH DEVELOPMENT COMPANY OF THE HEBREW …, priority 2005, dated 2016)

How the values were obtained:
[1] = system: Bcl-2, Bax, PARP; assay: Hippocampal apoptosis proteins by RT-PCR and immunoblotting; assay type: in vivo, mice; details: AICAR treatment (1-2 mM), RT-PCR and immunoblotting
Description: Total hippocampal RNA was extracted using […] reagent according to the manufacturer's instructions and reverse transcribed. Primers specific for OBRlong were […] NO: 1) and […] NO: 6), for […] NO: 2), and […] NO: 7), for BAX […] NO: 3) and […] NO: 8) for Bcl-2 […] NO: 4) and […] NO: 9) and for actin […] NO: 5) and […] NO: 10). […] Total hippocampal Protein was extracted using […] reagent. Aliquots of the clarified lysates containing […] were denatured in Laemmli sample buffer (6% SDS 30%, glycerol, 0.02% bromophenol blue, 200 mM Tris-HCl (pH 6.8), and 250 mM-mercaptoethanol, at 95° C. for 5 min. The samples were resolved by SDS-PAGE (10% acrylamide), and blotted onto nitrocellulose membrane. Non-specific binding in a Western blot analysis was prevented by immersing the membranes in blocking buffer (5% nonfat dry milk in Tris-buffer saline-Tween 20 (TBS-T)), for 2 h at room temperature. The membranes were then exposed to the indicated antibodies diluted 1:1000 for 1 h at room temperature. AMPK, phospho-AMPK and PARP were obtained from Cell Signaling. Bax, bcl-2 and actin were from Santa Cruz Biotechnology Inc. (Santa Cruz, Calif.). The blots were rinsed in TBS-T and then incubated with horseradish peroxidase-conjugated goat anti-mouse antibodies 1:10,000 for 1 h at room temperature. Antibody-antigen complexes were visualized by detecting enhanced chemiluminescence with X-ray film.

[2] = system: norepinephrine and dopamine in the hippocampus; assay: Hippocampal catecholamine measurements (HPLC-ECD); assay type: in vivo, mice; details: AICAR 1-2 mM daily for 10 days
Description: Control mice received food ad-libitum. Diet-restricted mice received a diet of 57 kCal/week/mouse (2.16 g/day/mouse) as 60% of the requirement, or 38 kCal/week/mouse (1.44 g/day/mouse) for 40%/DR. DR was carried out for 10 days. Behavioral test was performed using the eight-arm spatial maze during the second week of experiment. During the behavioral tests, half of the animals in each group were injected intraperitoneally (i.p) with AICAR (1-2 mM equal to 258-516 mg/kg) or leptin (1 mg/kg) and the other half with saline. Mice were sacrificed by decapitation after the behavioral tests and the hippocampi were frozen at -70° C. Catecholamines were measured as described previously ([…] et al (1996), Brain Res. 732, 133-144. The assays for dopamine and NE were performed by HPLC separation and detection using HPLC-ECD. Values are presented as a concentration (ng/mg tissue).

[3] = system: PC-12 cells; assay: Annexin V FACS analysis of apoptosis in PC-12 cells; assay type: cell-based; details: AICAR, 48 h
Description: Cells were grown in 60-mm plates and treated with AICAR for 48 h. Apoptosis was evaluated using the Annexin V FITC Detection Kit (Oncogene Research Products, Cambridge Mass.). Briefly, both attached and floating cells were collected, washed with cold PBS, re-suspended at a density of 5×10^5/ml in 0.5 ml DMEM, stained for annexin V and analyzed by flow cytometry. The apoptotic ratio at 48 h, was also evaluated, by FACS analysis.

[4] = system: mice; assay: Eight-arm maze, mice ad libitum or diet restricted; assay type: in vivo
Description: Control mice received food ad-libitum. Diet-restricted mice received a diet of 57 kCal/week/mouse (2.16 g/day/mouse) as 60% of the requirement, or 38 kCal/week/mouse (1.44 g/day/mouse) for 40%/DR. DR was carried out for 10 days. Behavioral test was performed using the eight-arm spatial maze during the second week of experiment. […] Mice were sacrificed by decapitation after the behavioral tests and the hippocampi were frozen at −70° C. The animals were placed in an eight-arm maze, which is a scaled-down version of that developed for rats (Randt et al, (1971) Science 172, 489-499; Ziv et al (1994) Neuroscience Lett, 170, 136-140). […] The mice were tested until they made entries into all eight arms or until they completed 24 entries, whichever came first. […] Maze performance was calculated each day for five consecutive days. Results were presented as area under the curve (AUC) utilizing the formula: (day 2+day 3+day 4+day 5)−4*(day 1).

[5] = system: BrdU-immunoreactive cells in the dentate gyrus; assay: BrdU labelling of newly generated cells in the dentate gyrus of mice; assay type: in vivo; details: 25 nM AICAR once daily for 10 days vs saline
Description: In order to determine what is “low level activation” varying doses of the AMPK pathway activator may be administered to test animals in the final formulation intended to be used in humans, together with Brd-U. Animals are than sacrificed and the number of BrdU-immunoreactive cells in the dentate gyrus is determined in order to measure the generation rate of new cells. Amounts that are capable of increasing the number of newly generated cells are considers as “therapeutically effective amounts” when converted, according to known criteria, to physiologically corresponding amounts in humans.
The function of AMPK activation in the hippocampus was evaluated. […] Mice were treated with bromodeoxyuridine (BrdU) and either saline or 25 nM AICAR (low level stimulation) once daily for 10 days. […] Next, behavioral testing was performed using the eight-arm maze to determine whether there was a concomitant improvement in cognition. […] (FIG. 1C).

[6] = system: differentiated PC-12 cells; assay: Viable cell number of differentiated PC-12 cells; assay type: cell-based; details: AICAR 0.125 to 1.0 mM, 96 h
Description: PC-12 cells were kindly provided by O. Meyuhas, Dept. of Biochem., Faculty of Medicine, Jerusalem. These cells were grown either in Dulbecco's modified Eagle's medium (DMEM) supplemented with 8% horse serum, 8% fetal bovine serum (FBS), glutamine, and gentamicin or with 1% horse serum, in the presence of nerve growth factor (NGF) (50 ng/ml), which causes the cells to differentiate. Murine leptin was provided by A. Gertler. AICAR was obtained from Toronto Research Chemicals (TRC). To confirm the cellular effects of AMPK in the hippocampus, in-vitro studies on PC-12 cells were also preformed.

## NC(=O)c1ncn([C@@H]2O[C@H](CO)[C@@H](O)[C@H]2O)c1N [AICAR, 5-aminoimidazole-4-carboxamide ribonucleoside, reference compound]
[1]
  Bax level: up-regulation
  bcl-2 level: reducing
[2]; p<0.05
  dopamine concentrations: elevating
[2]; p<0.05, 0.01 for the two dosages
  norepinephrine (NE) concentrations: decreased
[3]
  apoptotic cell death (Annexin V staining): induces apoptotic cell death in a dose-dependent manner
[4]; 25 nM AICAR (low level stimulation) vs controls
  eight-arm maze performance: performed significantly better than the controls
[4]; high dose AICAR (1-2 mM) vs ad libitum group, similar to DR to 40%
  eight-arm maze performance: significant deterioration in maze performance
[5]
  number of BrdU-immunoreactive cells in the dentate gyrus (generation rate of new cells): significantly increased
[6]
  number of viable cells: dose-dependent reduction in the number of viable cells, reaching almost total after 96 h
